“Also recorded” adds a separate entry of the source.
How the values were obtained:
[1] = Stability of inhibitors in extrudates in urea melt (HPLC, LCMS); format: physicochemical; conditions: urea melt conditions
Experimental: Representative procedure for checking the Inhibitor stability in urea melt: The extrudate (1.0 g) was added to a vial containing urea melt (3.0 g) and it was left at the same temperature for one minute. The Vial was then cooled to room temperature and diluted with 5.0 ml of water (milli-Q water). The water was decanted and the same process was repeated twice, to remove most of the urea. Finally, water (5.0 ml) was added to the extrudate and left for 4 h before submitting the samples for HPLC analysis.
Stability of inhibitors in urea melt: Extrudates containing inhibitors were tested for their stability in urea melt using HPLC and LCMS.
Extrudates containing NBTPT/DCD were dipped in urea melt in order to check the stability of the extrudates. Two types of studies were performed, 1) to check the deformation ability of extrudate in urea melt; and 2) to check the stability of inhibitors. Castor wax extrudates with and without inhibitors sustain the urea melt conditions under 5 seconds but inhibitors (NBTPT and DCD) were stable under these conditions. Bleached wheat flour containing extrudates sustained the urea melt temperature (133-135° C.). High melt waxes are taken in to consideration in order to mitigate the problem of possible deformation of wax extrudates when exposed to urea melt. The extrudates of high melt waxes were exposed to urea melt. […] The stability of NBTPT and DCD under urea melt temperature were analyzed and confirmed by HPLC and LCMS.

[2] = cited from earlier work
[3] = Thermal stability of neat NBTPT and NBTPT within a core at 133-135° C. by HPLC; format: physicochemical; conditions: exposed to 133-135° C. (urea melt temperature), up to 30 min
Experimental: The thermal stability of neat NBTPT and NBTPT contained within a core, as disclosed herein, can be determined by HPLC. For example, neat NBTPT or a core containing NBTPT can be exposed to 135° C. (133-135° C. is the typical temperature range of a urea melt) and can continuously be analyzed by HPLC every 5 min. Such data will determine how whether the NBTPT has better thermal stability when contained within a core, as compared to neat NBTPT.
The thermal stability of neat NBTPT and NBTPT within a core was determined by HPLC. The core for this example contained 58.8 wt % PoP, 39.2 wt % bleached wheat flour, and 2.0 wt % NBTPT. Both neat NBTPT and NBTPT within a core were exposed to 133-135° C., which is the typical urea melt temperature. […] The data indicates the core protects fertilizer additive materials, such as an inhibitor, from degradation during manufacturing conditions, including the expose of temperatures associated with a urea melt. The thermal stability of materials, such as an inhibitor is critical for its good performance (inhibition) in the soil. The intended function of a material, such as an inhibitor, can be lost if the material degrades when exposed to high temperatures during the manufacturing process.

[4] = Stability of NBTPT during oven drying of water containing extrudates; format: physicochemical; conditions: extrudates dried in oven at 120° C. overnight
Source text: Optimized formulations from the DACA were successfully extruded in the pilot scale extruder in 300 g scale. 100% bleached wheat flour was also extruded with 10-20% water which was not done in DACA.

[5] = bleached wheat flour extrudate containing the inhibitor
[6] = castor wax extrudate containing the inhibitor

Structure (SMILES) | Degradation of inhibitor in HPLC [1, 5] | Degradation of inhibitor in HPLC [1, 6] | Thermal stability in the soil ([2]; hot climatic region, soil) | Thermal stability (decomposition by HPLC) ([3]; listed as Neat NBTPT) | Thermal stability (decomposition by HPLC) ([3]; listed as neat NBTPT) | Stability of NBTPT on drying [4] | Stability under acidic pH ([2]; acidic pH)
N#CN=C(N)N [DCD, dicyandiamide] | no degradation | stable; also recorded: no degradation | thermal instability |  |  |  | 
CCCCNP(N)(N)=S [NBTPT, N-(n-butyl) thiophosphoric triamide] | no degradation | stable; also recorded: no degradation |  | significant degradation | decomposes | stable | unstable

From patent US10640430B2, “Fertilizer capsule comprising one or more cores and method of making same” (SAUDI BASIC INDUSTRIES CORPORATION, priority 2014, dated 2020)
